The source of these data is US20100063092A1, “3-CYANO-4-(4-PHENYL-PIPERIDIN-1-YL)-PYRIDIN-2-ONE DERIVATIVES” (Ortho-Mcneil-Janssen Pharmaceuticals, Inc., priority 2007, published 2010).

Where two headings read alike, the source gives them in different places.

In one data set the target is T1, human mGluR2 (Homo sapiens, UniProt Q14416).
T1 construct: expressed in transfected cells; host or cells: CHO cells (membranes)
As to the kind of experiment: [35S]GTPγS binding assay (PAM assay). Type of data set: biochemical. The source says:
The compounds provided in the present invention are positive allosteric modulators of mGluR2. These compounds appear to potentiate glutamate responses by binding to an allosteric site other than the glutamate binding site. The response of mGluR2 to a concentration of glutamate is increased when compounds of formula (I) are present. Compounds of formula (I) are expected to have their effect substantially at mGluR2 by virtue of their ability to enhance the function of the receptor. The behaviour of positive allosteric modulators tested at mGluR2 using the [^35S]GTPγS binding assay method described below and which is suitable for the identification of such compounds, and more particularly the compounds according to formula (I), are shown in Table 3.
The [^35S]GTPγS binding assay is a functional membrane-based assay used to study G-protein coupled receptor (GPCR) function whereby incorporation of a non-hydrolysable form of GTP, [^35S]GTPγS (guanosine 5′-triphosphate, labelled with […] ^35S), is measured. The G-protein […] catalyzes the exchange of guanosine 5′-diphosphate (GDP) by guanosine triphosphate (GTP) and on activation of the GPCR by an agonist, [^35S]GTPγS, becomes incorporated and cannot be cleaved to continue the exchange cycle (Harper (1998) Current Protocols in Pharmacology 2.6.1-10, John Wiley & Sons, Inc.). […] Here we describe the use of the [^35S]GTPγS binding assay using membranes from cells transfected with the human mGluR2 receptor and adapted from Schaffhauser et al ((2003) Molecular Pharmacology 4:798-810) for the detection of the positive allosteric modulation (PAM) properties of the compounds of this invention.
CHO-cells were cultured to pre-confluence and stimulated with 5 mM butyrate for 24 hours, prior to washing in PBS, and then collection by scraping in homogenisation buffer (50 mM Tris-HCl buffer, pH 7.4, 4° C.). Cell lysates were homogenized briefly (15s) using an ultra-turrax homogenizer. The homogenate was centrifuged at 23 500×g for 10 minutes and the supernatant discarded. The pellet was resuspended in 5 mM Tris-HCl, pH 7.4 and centrifuged again (30 000×g, 20 min, 4° C.). The final pellet was resuspended in 50 mM HEPES, pH 7.4 and stored at −80° C. in appropriate aliquots before use. Protein concentration was determined by the Bradford method (Bio-Rad, USA) with bovine serum albumin as standard.
Measurement of mGluR2 positive allosteric modulatory activity of test compounds in membranes containing human mGluR2 was performed using frozen membranes that were thawed and briefly homogenised prior to pre-incubation in 96-well microplates (15 μg/assay well, 30 minutes, 30° C.) in assay buffer (50 mM HEPES pH 7.4, 100 mM NaCl, 3 mM MgCl2, 50 μM GDP, 10 μg/ml saponin,) with increasing concentrations of positive allosteric modulator (from 0.3 nM to 50 μM) and either a minimal pre-determined concentration of glutamate (PAM assay), or no added glutamate. For the PAM assay, membranes were pre-incubated with glutamate at EC25 concentration, i.e. a concentration that gives 25% of the maximal response glutamate, and is in accordance to published data (Pin et al. (1999) Eur. J. Pharmacol. 375:277-294). After addition of [^35S]GTPγS (0.1 nM, f.c.) to achieve a total reaction volume of 200 μl, microplates were shaken briefly and further incubated to allow [^35S]GTPγS incorporation on activation (30 minutes, 30° C.). The reaction was stopped by rapid vacuum filtration over glass-fibre filter plates (Unifilter 96-well GF/B filter plates, Perkin-Elmer, Downers Grove, USA) microplate using a 96-well plate cell harvester (Filtermate, Perkin-Elmer, USA), and then by washing three times with 300 μl of ice-cold wash buffer (Na2PO4.2H20 10 mM, NaH2PO4.H20 10 mM, pH=7.4). Filters were then air-dried, and 40 μl of liquid scintillation cocktail (Microscint-O) was added to each well, and membrane-bound [^35S]GTPγS was measured in a 96-well scintillation plate reader (Top-Count, Perkin-Elmer, USA). […]

Where [1] appears, read: compounds of formula (I'), protocol of section D ([35S]GTPγS, human mGluR2, glutamate EC25), read-out: pEC50 (see section D for protocol) (converted).
Setting [2] is: membranes from CHO cells transfected with human mGluR2, in presence of glutamate at predetermined EC25 concentration, averages of duplicate values of 11-concentration response curves, read-out: GTPgS - hR2 PAM pEC50 (converted).

T1 sequence (Q14416 19-872): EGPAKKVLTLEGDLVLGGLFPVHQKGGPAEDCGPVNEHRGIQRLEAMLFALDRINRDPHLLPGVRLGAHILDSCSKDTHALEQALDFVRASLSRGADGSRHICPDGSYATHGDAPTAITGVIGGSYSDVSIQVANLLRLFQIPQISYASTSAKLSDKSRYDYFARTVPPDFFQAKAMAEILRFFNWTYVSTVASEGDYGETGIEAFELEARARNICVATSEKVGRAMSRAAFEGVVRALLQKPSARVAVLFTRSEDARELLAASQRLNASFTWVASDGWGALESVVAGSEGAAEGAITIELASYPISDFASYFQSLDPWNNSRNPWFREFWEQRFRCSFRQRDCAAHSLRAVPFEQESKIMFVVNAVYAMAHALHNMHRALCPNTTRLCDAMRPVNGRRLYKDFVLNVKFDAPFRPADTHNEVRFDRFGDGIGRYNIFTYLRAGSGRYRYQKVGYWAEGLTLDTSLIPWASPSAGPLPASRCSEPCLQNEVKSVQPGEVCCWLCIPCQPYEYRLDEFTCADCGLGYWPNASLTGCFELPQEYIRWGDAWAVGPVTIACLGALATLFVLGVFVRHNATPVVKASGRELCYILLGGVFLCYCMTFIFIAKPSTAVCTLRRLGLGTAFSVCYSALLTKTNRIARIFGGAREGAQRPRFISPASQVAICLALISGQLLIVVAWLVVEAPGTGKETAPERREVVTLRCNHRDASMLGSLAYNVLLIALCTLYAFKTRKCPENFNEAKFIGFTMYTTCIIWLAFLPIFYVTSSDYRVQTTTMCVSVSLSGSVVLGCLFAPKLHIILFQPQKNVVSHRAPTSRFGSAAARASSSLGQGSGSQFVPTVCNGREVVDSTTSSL

For `CCCCn1ccc(N2CCC(O)(c3cccc(Cl)c3)CC2)c(C#N)c1=O`, the EC50 on human mGluR2 (setting [1]) is 0.2 µM.

On to `CCCCn1ccc(N2CCC(O)(c3ccc(Cl)cc3)CC2)c(C#N)c1=O`, for which, on human mGluR2 (setting [1]), the EC50 was 0.1 µM.

For the molecule `CCCCn1ccc(N2CCC(O)(c3ccc(F)cc3)CC2)c(C#N)c1=O`, on human mGluR2 (setting [1]), the EC50 is 0.398 µM.

Consider `N#Cc1c(N2CCC(O)(c3ccc(F)cc3)CC2)ccn(CC2CC2)c1=O`, for which the EC50 on human mGluR2 (setting [1]) is 0.501 µM.

For the molecule `N#Cc1c(N2CCC(O)(c3ccccc3)CC2)ccn(CC2CC2)c1=O`, the EC50 on human mGluR2 (setting [1]) was 1 µM.

With `N#Cc1c(N2CCC(F)(c3ccccc3)CC2)ccn(CC2CC2)c1=O` [Compound 1, 1′-Cyclopropylmethyl-4-fluoro-2′-oxo-4-phenyl-3,4,5,6,1′,2′-hexahydro-2H-[1,4′]bipyridinyl-3′-carbonitrile], the melting point was found to be 189.2 °C. For the same molecule, on human mGluR2 (setting [2]), the EC50 is 0.263 µM.

For `CCCCn1ccc(N2CCC(F)(c3ccccc3)CC2)c(C#N)c1=O` [Compound 2, 1′-Butyl-4-fluoro-2′-oxo-4-phenyl-3,4,5,6,1′,2′-hexahydro-2H-[1,4′]bipyridinyl-3′-carbonitrile], the EC50 on human mGluR2 (setting [2]) is 0.174 µM.

Take `CCCCn1ccc(N2CCC(CO)(c3ccccc3)CC2)c(C#N)c1=O` [Compound 4, 1′-Butyl-4-hydroxymethyl-2′-oxo-4-phenyl-3,4,5,6,1′,2′-hexahydro-2H-[1,4′]bipyridinyl-3′-carbonitrile]: the melting point amounted to 103.2 °C. Also, the EC50 on human mGluR2 (setting [2]) was 2.04 µM.

Take `N#Cc1c(N2CCC(CF)(c3ccccc3)CC2)ccn(CC2CC2)c1=O` [Compound 5, 1′-Cyclopropylmethyl-4-fluoromethyl-2′-oxo-4-phenyl-3,4,5,6,1′,2′-hexahydro-2H-[1,4′]bipyridinyl-3′-carbonitrile]: the EC50 at human mGluR2 (setting [2]) is 1.2 µM.

On to `CCCCn1ccc(N2CCC(CF)(c3ccccc3)CC2)c(C#N)c1=O` [Compound 6, 1′-Butyl-4-fluoromethyl-2′-oxo-4-phenyl-3,4,5,6,1′,2′-hexahydro-2H-[1,4′]bipyridinyl-3′-carbonitrile], for which, on human mGluR2 (setting [2]), the EC50 is 0.447 µM.

Take `CCCCn1ccc(N2CCC(OCCF)(c3ccccc3)CC2)c(C#N)c1=O` [Compound 7, 1′-Butyl-4-fluoroethyloxy-2′-oxo-4-phenyl-3,4,5,6,1′,2′-hexahydro-2H-[1,4′]bipyridinyl-3′-carbonitrile]: the EC50 at human mGluR2 (setting [2]) is 0.186 µM.

`N#Cc1c(N2CCC(c3ccccc3)CC2)ccn(CC2CC2)c1=O` [Compound 8, 3-cyano-1-cyclopropylmethyl-4-(4-phenyl-piperidin-1-yl)-pyridine-2(1H)-one]: the melting point turned out to be 128 °C. Also, at human mGluR2 (setting [2]), the EC50 was 0.316 µM.
